Results as given in patent US20260102383A1, “LPAR1 Inhibitors” (AbbVie Inc., priority 2024, published 2026).

Each compound was assayed against T1, human LPAR1 (Homo sapiens, UniProt Q92633) (assay: Arrestin assay (Arrestin Reporter EDG2-bla U2OS), inhibition of LPA-stimulated signal). Settings: TangoEDG2-bla U2OS cells expressing human LPAR1; 0.25 μM LPA; read-out: Arrestin Reporter EDG2-bla U2OS Human Merged IC50.
T1 construct: host or cells: TangoEDG2-bla U2OS cells
Format: cell-based
Procedure, shortened: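 TangoEDG2-bla U2OS cells (1×10^4/well, plated 18-20 h) were preincubated 1 h at 37 °C with compound (12-point, 3-fold, 10 μM to 0.00006 μM), then stimulated 3 h with 0.25 μM LPA final. LiveBLAzer FRET B/G 460/530 nm emission ratio gave % inhibition; IC50 from 4-parameter variable-slope fit.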

T1 sequence (Q92633 whole entry): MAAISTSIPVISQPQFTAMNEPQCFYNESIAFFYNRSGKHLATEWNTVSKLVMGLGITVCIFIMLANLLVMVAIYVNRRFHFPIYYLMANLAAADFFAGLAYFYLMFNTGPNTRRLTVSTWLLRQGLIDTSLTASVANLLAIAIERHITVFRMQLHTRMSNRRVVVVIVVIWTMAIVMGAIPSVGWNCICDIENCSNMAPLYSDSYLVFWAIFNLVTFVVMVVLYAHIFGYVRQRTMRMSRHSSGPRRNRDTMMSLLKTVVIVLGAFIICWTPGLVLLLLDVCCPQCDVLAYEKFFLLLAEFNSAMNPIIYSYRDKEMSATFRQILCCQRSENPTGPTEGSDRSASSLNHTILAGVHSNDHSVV

| Structure (SMILES) | IC50 [nM] |
| --- | --- |
| CC(C)c1ccnn1C1(C(=O)Nc2ccc(Cl)cc2OC(F)F)CCN(C2CC(NC(=O)OC(C)(C)C)(C(=O)O)C2)CC1 (centres unmarked) [Compound 124, 1-(tert-butoxycarbonylamino)-3-[4-[[4-chloro-2-(difluoromethoxy)phenyl]carbamoyl]-4-(5-isopropylpyrazol-1-yl)-1-piperidyl] cyclobutanecarboxylic acid] | 49.3 |
| CC(C)c1ccnn1C1(C(=O)Nc2ccc(Cl)cc2OC(F)F)CCN([C@H]2C[C@@]3(C[C@@H]3C(=O)O)C2)CC1 [Compound 127, (1S,3r,5R)-5-[4-[[4-chloro-2-(difluoromethoxy)phenyl]carbamoyl]-4-(5-isopropylpyrazol-1-yl)-1-piperidyl]spiro[2.3] hexane-2-carboxylic acid] | 31.9 |
| CC(C)c1ccnn1C1(C(=O)Nc2ccc(Cl)cc2OC(F)F)CCN(C2(CC(=O)O)CCOCC2)CC1 [Compound 128, 2-[4-[4-[[4-chloro-2-(difluoromethoxy)phenyl]carbamoyl]-4-(5-isopropylpyrazol-1-yl)-1-piperidyl]tetrahydropyran-4-yl]acetic acid] | 56 |
| COC(=O)N[C@]1(C(=O)O)C[C@@H](N2CCC(C(=O)Nc3ccc(Cl)cc3OC(F)F)(n3nccc3C(C)C)CC2)C1 [Compound 131] | 134 |
| CC(C)c1ccnn1C1(C(=O)Nc2ccc(Cl)cc2OC(F)F)CCN([C@H]2C[C@@](NS(C)(=O)=O)(C(=O)O)C2)CC1 [Compound 132, (1r,3r)-3-[4-[[4-chloro-2-(difluoromethoxy)phenyl]carbamoyl]-4-(5-isopropylpyrazol-1-yl)-1-piperidyl]-1-(methanesulfonamido) cyclobutanecarboxylic acid] | 178 |
| CC(C)c1ccnn1C1(C(=O)Nc2ccc(Cl)cc2OC(F)F)CCN(CC(C(=O)O)C2CCOC2)CC1 (centres unmarked) [Compound 136, 3-[4-[[4-chloro-2-(difluoromethoxy)phenyl]carbamoyl]-4-(5-isopropylpyrazol-1-yl)-1-piperidyl]-2-tetrahydrofuran-3-yl-propanoic acid] | 46.7 |
| CC(C)c1ccnn1C1(C(=O)Nc2ccc(Cl)cc2OC(F)F)CCN([C@@H]2CO[C@@H](C(=O)O)C2)CC1 [Compound 138, (2R,4S)-4-[4-[[4-chloro-2-(difluoromethoxy)phenyl]carbamoyl]-4-(5-isopropylpyrazol-1-yl)-1-piperidyl]tetrahydrofuran-2-carboxylic acid] | 72 |
| CC(C)c1ccnn1C1(C(=O)Nc2ccc(Cl)cc2OC(F)F)CCN([C@H]2CO[C@@H](C(=O)O)C2)CC1 [Compound 139, (2R,4R)-4-[4-[[4-chloro-2-(difluoromethoxy)phenyl]carbamoyl]-4-(5-isopropylpyrazol-1-yl)-1-piperidyl]tetrahydrofuran-2-carboxylic acid] | 53.7 |
| CC(C)c1c(F)cnn1C1(C(=O)Nc2ccc(Cl)cc2OC(F)F)CCN(C[C@H](C(=O)O)C2CCOCC2)CC1 [Compound 141, (28)-3-[4-[[4-chloro-2-(difluoromethoxy)phenyl]carbamoyl]-4-(4-fluoro-5-isopropyl-pyrazol-1-yl)-1-piperidyl]-2-tetrahydropyran-4-yl-propanoic acid] | 25.7 |
| COC1CCC(C(CN2CCC(C(=O)Nc3ccc(Cl)cc3OC(F)F)(n3nccc3C(C)C)CC2)C(=O)O)CC1 (centres unmarked) [Compound 145, 3-[4-[[4-chloro-2-(difluoromethoxy)phenyl]carbamoyl]-4-(5-isopropylpyrazol-1-yl)-1-piperidyl]-2-(4-methoxycyclohexyl) propanoic acid] | 40.9 |
| CC(C)c1ccnn1C1(C(=O)Nc2ccc(Cl)cc2OC(F)F)CCN(CC(C(=O)O)c2cnn(C)c2)CC1 (centres unmarked) [Compound 147, 3-[4-[[4-chloro-2-(difluoromethoxy)phenyl]carbamoyl]-4-(5-isopropylpyrazol-1-yl)-1-piperidyl]-2-(1-methylpyrazol-4-yl)propanoic acid] | 167 |
| CC(C)c1ccnn1C1(C(=O)Nc2ccc(Cl)cc2OC(F)F)CCN(C[C@H](C(=O)O)[C@H]2CCOC2)CC1 [Compound 148, (2R)-3-[4-[[4-chloro-2-(difluoromethoxy)phenyl]carbamoyl]-4-(5-isopropylpyrazol-1-yl)-1-piperidyl]-2-[(3R)-tetrahydrofuran-3-yl]propanoic acid] | 50.4 |
| CC(C)c1c(F)cnn1C1(C(=O)Nc2ccc(Cl)cc2OC(F)F)CCN(CC2(C(=O)O)CCC(=O)CC2)CC1 [Compound 153, 1-[[4-[[4-chloro-2-(difluoromethoxy)phenyl]carbamoyl]-4-(4-fluoro-5-isopropyl-pyrazol-1-yl)-1-piperidyl]methyl]-4-oxo-cyclohexanecarboxylic acid] | 30.4 |
| CC(C)c1ccnn1C1(C(=O)Nc2ccc(Cl)cc2OC(F)F)CCN(C[C@@H](C(=O)O)c2cnn(C)c2)CC1 [Compound 155, (2S)-3-[4-[[4-chloro-2-(difluoromethoxy)phenyl]carbamoyl]-4-(5-isopropylpyrazol-1-yl)-1-piperidyl]-2-(1-methylpyrazol-4-yl)propanoic acid] | 125 |
| CC(C)c1c(F)cnn1C1(C(=O)Nc2ccc(Cl)cc2OC(F)F)CCN(C[C@@H](C(=O)O)C2CCOCC2)CC1 [Compound 158, (2.8)-3-[4-[[4-chloro-2-(difluoromethoxy)phenyl]carbamoyl]-4-(4-fluoro-5-isopropyl-pyrazol-1-yl)-1-piperidyl]-2-tetrahydropyran-4-yl-propanoic acid] | 46 |
| CC(C)c1ccnn1C1(C(=O)Nc2ccc(Cl)cc2OC(F)F)CCN(C[C@H](C(=O)O)N2C[C@@H](C)O[C@H](C)C2)CC1 [Compound 159, (2R)-3-[4-[[4-chloro-2-(difluoromethoxy)phenyl]carbamoyl]-4-(5-isopropylpyrazol-1-yl)-1-piperidyl]-2-[(2R,6R)-2,6-dimethylmorpholin-4-yl]propanoic acid] | 326 |

Other lines, results leading:

| IC50 [nM] | Structure (SMILES) |
| --- | --- |
| 113 | CC(C)c1ccnn1C1(C(=O)Nc2ccc(Cl)cc2OC(F)F)CCN(CC(CN2CCOCC2)C(=O)O)CC1 (centres unmarked) [Compound 125, 2-[[4-[[4-chloro-2-(difluoromethoxy)phenyl]carbamoyl]-4-(5-isopropylpyrazol-1-yl)-1-piperidyl]methyl]-3-morpholino-propanoic acid] |
| 22.1 | CC[C@@H](CN1CCC(C(=O)Nc2ccc(Cl)cc2OC(F)F)(n2nccc2C(C)C)CC1)C(=O)O [Compound 126, (2S)-2-[[4-[[4-chloro-2-(difluoromethoxy)phenyl]carbamoyl]-4-(5-isopropylpyrazol-1-yl)-1-piperidyl]methyl] butanoic acid] |
| 34.7 | CC(C)c1ccnn1C1(C(=O)Nc2ccc(Cl)cc2OC(F)F)CCN(CC(Cn2cccn2)C(=O)O)CC1 (centres unmarked) [Compound 129, 2-[[4-[[4-chloro-2-(difluoromethoxy)phenyl]carbamoyl]-4-(5-isopropylpyrazol-1-yl)-1-piperidyl]methyl]-3-pyrazol-1-yl-propanoic acid] |
| 45.7 | CC(C)c1ccnn1C1(C(=O)Nc2ccc(Cl)cc2OC(F)F)CCN(C[C@@H](C)C(C)(C)C(=O)O)CC1 [Compound 130] |
| 74.8 | CC(C)c1ccnn1C1(C(=O)Nc2ccc(Cl)cc2OC(F)F)CCN(CC(CCO)C(=O)O)CC1 (centres unmarked) [Compound 133, 2-[[4-[[4-chloro-2-(difluoromethoxy)phenyl]carbamoyl]-4-(5-isopropylpyrazol-1-yl)-1-piperidyl]methyl]-4-hydroxy-butanoic acid] |
| 71.5 | CCOC(CN1CCC(C(=O)Nc2ccc(Cl)cc2OC(F)F)(n2nccc2C(C)C)CC1)C(=O)O (centres unmarked) [Compound 134, 3-[4-[[4-chloro-2-(difluoromethoxy)phenyl]carbamoyl]-4-(5-isopropylpyrazol-1-yl)-1-piperidyl]-2-ethoxy-propanoic acid] |
| 76.9 | COCOCC(CN1CCC(C(=O)Nc2ccc(Cl)cc2OC(F)F)(n2nccc2C(C)C)CC1)C(=O)O (centres unmarked) [Compound 135, 2-[[4-[[4-chloro-2-(difluoromethoxy)phenyl]carbamoyl]-4-(5-isopropylpyrazol-1-yl)-1-piperidyl]methyl]-3-(methoxymethoxy) propanoic acid] |
| 37.9 | COCCC(CN1CCC(C(=O)Nc2ccc(Cl)cc2OC(F)F)(n2nccc2C(C)C)CC1)C(=O)O (centres unmarked) [Compound 142, 2-[[4-[[4-chloro-2-(difluoromethoxy)phenyl]carbamoyl]-4-(5-isopropylpyrazol-1-yl)-1-piperidyl]methyl]-4-methoxy-butanoic acid] |
| 32.2 | C=C(CN1CCC(C(=O)Nc2ccc(Cl)cc2OC(F)F)(n2nccc2C(C)C)CC1)C(=O)O [Compound 143, 2-[[4-[[4-chloro-2-(difluoromethoxy)phenyl]carbamoyl]-4-(5-isopropylpyrazol-1-yl)-1-piperidyl]methyl]prop-2-enoic acid] |
| 55.9 | CCO[C@H](CN1CCC(C(=O)Nc2ccc(Cl)cc2OC(F)F)(n2nccc2C(C)C)CC1)C(=O)O [Compound 144, (2R)-3-[4-[[4-chloro-2-(difluoromethoxy)phenyl]carbamoyl]-4-(5-isopropylpyrazol-1-yl)-1-piperidyl]-2-ethoxy-propanoic acid] |
| 15.6 | CC(C)c1ccnn1C1(C(=O)Nc2ccc(Cl)cc2OC(F)F)CCN(CC(CC#N)C(=O)O)CC1 (centres unmarked) [Compound 146, 2-[[4-[[4-chloro-2-(difluoromethoxy)phenyl]carbamoyl]-4-(5-isopropylpyrazol-1-yl)-1-piperidyl]methyl]-3-cyano-propanoic acid] |
| 49.7 | COCC[C@@H](CN1CCC(C(=O)Nc2ccc(Cl)cc2OC(F)F)(n2nccc2C(C)C)CC1)C(=O)O [Compound 156, (2S)-2-[[4-[[4-chloro-2-(difluoromethoxy)phenyl]carbamoyl]-4-(5-isopropylpyrazol-1-yl)-1-piperidyl]methyl]-4-methoxy-butanoic acid] |
| 53.2 | COCC[C@H](CN1CCC(C(=O)Nc2ccc(Cl)cc2OC(F)F)(n2nccc2C(C)C)CC1)C(=O)O [Compound 157, (2R)-2-[[4-[[4-chloro-2-(difluoromethoxy)phenyl]carbamoyl]-4-(5-isopropylpyrazol-1-yl)-1-piperidyl]methyl]-4-methoxy-butanoic acid] |
